Measurements as given in ChEMBL document CHEMBL1201862, “PubChem BioAssay data set” (2004).
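In this assay, cells in 96-well plates receive the compound at five concentrations for 48 hours. Endpoints are linearly interpolated between the surrounding concentrations. Here, GI50 denotes the concentration required for 50% inhibition of growth.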 The source made the active and inactive calls. No stated cut-off is given here; in the data, active = GI50 up to about 1.1 µM and inactive = higher.

Columns and labels:
Test in all cases: NCI anticancer screen, dose series, 48 h
ACHN = test system: ACHN
RXF 393 = test system: RXF 393
RPMI-8226 = test system: RPMI-8226
HL-60 = test system: HL-60
OVCAR-8 = test system: OVCAR-8
OVCAR-4 = test system: OVCAR-4
KM12 = test system: KM12
NCI-H226 = test system: NCI-H226
SW-620 = test system: SW-620
HT-29 = test system: HT-29
NCI-H460 = test system: NCI-H460
M19-MEL = test system: M19-MEL
NCI-H522 = test system: NCI-H522
K562 = test system: K562
UACC-257 = test system: UACC-257
IGROV-1 = test system: IGROV-1
786-0 = test system: 786-0
SK-OV-3 = test system: SK-OV-3
XF498 = test system: XF498
SNB-19 = test system: SNB-19
U-251 = test system: U-251
DLD-1 = test system: DLD-1
KM-20L2 = test system: KM-20L2
UACC-62 = test system: UACC-62
UO-31 = test system: UO-31
LOX IMVI = test system: LOX IMVI
TK-10 = test system: TK-10
A549 = test system: A549
HOP-62 = test system: HOP-62
HCT-116 = test system: HCT-116
EKVX = test system: EKVX
SF-539 = test system: SF-539
M14 = test system: M14
OVCAR-3 = test system: OVCAR-3
SK-MEL-2 = test system: SK-MEL-2
NCI-H23 = test system: NCI-H23
HOP-92 = test system: HOP-92
Malme-3M = test system: Malme-3M
OVCAR-5 = test system: OVCAR-5
SNB-75 = test system: SNB-75
SN12C = test system: SN12C
LXFL 529 = test system: LXFL 529
A498 = test system: A498
SF-268 = test system: SF-268
SR = test system: SR
SNB-78 = test system: SNB-78
RXF 631 = test system: RXF 631
SF-295 = test system: SF-295
SK-MEL-5 = test system: SK-MEL-5
CAKI-1 = test system: CAKI-1
HCT-15 = test system: HCT-15
CCRF-CEM = test system: CCRF-CEM

CC(=O)C(CN(Cc1ccccc1)Cc1ccccc1)C(c1ccccc1)c1c(O)c2ccccc2oc1=O (configuration not stated)
GI50 (ACHN): > 100 µM (inactive)
GI50 (RXF 393): > 100 µM (inactive)
GI50 (RPMI-8226): > 100 µM (inactive)
GI50 (HL-60): > 100 µM (inactive)
GI50 (OVCAR-8): > 100 µM (inactive)
GI50 (OVCAR-4): > 100 µM (inactive)
GI50 (KM12): > 100 µM (inactive)
GI50 (NCI-H226): > 100 µM (inactive)
GI50 (SW-620): 71.4 µM (inactive)
GI50 (HT-29): > 100 µM (inactive)
GI50 (NCI-H460): > 100 µM (inactive)
GI50 (M19-MEL): > 100 µM (inactive)
GI50 (NCI-H522): > 100 µM (inactive)
GI50 (K562): > 100 µM (inactive)
GI50 (UACC-257): > 100 µM (inactive)
GI50 (IGROV-1): > 100 µM (inactive)
GI50 (786-0): > 100 µM (inactive)
GI50 (SK-OV-3): > 100 µM (inactive)
GI50 (XF498): > 100 µM (inactive)
GI50 (SNB-19): > 100 µM (inactive)
GI50 (U-251): > 100 µM (inactive)
GI50 (DLD-1): > 100 µM (inactive)
GI50 (KM-20L2): > 100 µM (inactive)
GI50 (UACC-62): > 100 µM (inactive)
GI50 (UO-31): > 100 µM (inactive)
GI50 (LOX IMVI): > 100 µM (inactive)
GI50 (TK-10): > 100 µM (inactive)
GI50 (A549): > 100 µM (inactive)
GI50 (HOP-62): > 100 µM (inactive)
GI50 (HCT-116): > 100 µM (inactive)
GI50 (EKVX): > 100 µM (inactive)
GI50 (SF-539): > 100 µM (inactive)
GI50 (M14): > 100 µM (inactive)
GI50 (OVCAR-3): > 100 µM (inactive)
GI50 (SK-MEL-2): > 100 µM (inactive)
GI50 (NCI-H23): > 100 µM (inactive)
GI50 (HOP-92): 18.9 µM (inactive)
GI50 (Malme-3M): > 100 µM (inactive)
GI50 (OVCAR-5): > 100 µM (inactive)
GI50 (SNB-75): > 100 µM (inactive)
GI50 (SN12C): > 100 µM (inactive)
GI50 (LXFL 529): > 100 µM (inactive)
GI50 (A498): > 100 µM (inactive)
GI50 (SF-268): > 100 µM (inactive)
GI50 (SR): > 100 µM (inactive)
GI50 (SNB-78): > 100 µM (inactive)
GI50 (RXF 631): > 100 µM (inactive)
GI50 (SF-295): > 100 µM (inactive)
GI50 (SK-MEL-5): > 100 µM (inactive)
GI50 (CAKI-1): > 100 µM (inactive)
GI50 (HCT-15): > 100 µM
GI50 (CCRF-CEM): > 100 µM (inactive)
